Assays:
[1] = target: Sigma non-opioid intracellular receptor 1 (Homo sapiens, UniProt Q99720); test: Binding affinity to sigma 1 receptor (unknown origin)
[2] = target: Sigma intracellular receptor 2 (Homo sapiens, UniProt Q5BJF2); test: Binding affinity to sigma 2 receptor (unknown origin)
Chain of Sigma intracellular receptor 2 (Q5BJF2 whole entry): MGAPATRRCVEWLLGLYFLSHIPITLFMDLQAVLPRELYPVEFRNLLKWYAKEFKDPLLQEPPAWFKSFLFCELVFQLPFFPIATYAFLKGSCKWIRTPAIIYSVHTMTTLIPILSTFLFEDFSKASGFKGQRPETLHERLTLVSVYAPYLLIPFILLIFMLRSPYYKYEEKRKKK

Chain of Sigma non-opioid intracellular receptor 1 (Q99720 whole entry): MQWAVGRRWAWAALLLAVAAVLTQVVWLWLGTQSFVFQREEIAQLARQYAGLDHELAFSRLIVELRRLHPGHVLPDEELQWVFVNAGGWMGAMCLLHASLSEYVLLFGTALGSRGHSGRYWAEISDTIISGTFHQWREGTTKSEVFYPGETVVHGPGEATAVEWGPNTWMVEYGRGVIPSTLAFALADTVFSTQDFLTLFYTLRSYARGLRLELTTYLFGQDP

| SMILES | Ki [1] [nM] | Ki [2] [nM] |
| --- | --- | --- |
| N#Cc1ccc(CCNC2CCc3nn4c(c3C2)C(=O)NCCC4)cc1 (stereo not given) | 1000 | < 1000 |
| CN1CCn2nc3c(c2C1=O)CC(NCc1ccc(F)cc1)CC3 (stereo not given) | 1000 | 1000 |
| CCCn1nc(C(=O)Nc2cccc(OC)c2)c2c1CCC(NCCc1ccncc1)C2 (stereo not given) | 1000 | < 1000 |
| O=C(c1nn(-c2ccccc2)c2c1CC(NCC1CCOCC1)CC2)N1CCCCC1 (stereo not given) | < 1000 | < 1000 |
| O=C1NCCn2nc3c(c21)CC(NCCc1ccc2c(c1)OCO2)CC3 (stereo not given) | 1000 | 1000 |

More lines, now with the values ahead:

| Ki [1] [nM] | Ki [2] [nM] | SMILES |
| --- | --- | --- |
| 1000 | < 1000 | O=C(c1nn(-c2ccccc2)c2c1CC(NCCc1ncc[nH]1)CC2)N1CCCCC1 (stereo not given) |
| < 1000 | < 1000 | N#Cc1ccc(CCNC2CCc3c(c(C(=O)N4CCCCC4)nn3-c3ccccc3)C2)cc1 (stereo not given) |
| 1000 | 1000 | O=C(c1nn(-c2ccccc2)c2c1CC(N1CCc3ccccc3C1)CC2)N1CCCCC1 (stereo not given) |
| 1000 | < 1000 | CCCn1nc(C(=O)N2CCCCC2)c2c1CCN(CCc1cccc(C(F)(F)F)c1)C2 |
| < 1000 | 1000 | CCCn1nc(C(=O)N2CCCCC2)c2c1CCN(CCc1ccc(F)cc1)C2 |

Source: ChEMBL document CHEMBL4673399, “Sigma-1 and Sigma-2 Receptor Modulators as Potential Therapeutics for Alzheimer's Disease” (ACS Med Chem Lett, 2021)
